Source: patent US20230301925A1, “PHOSPHOLIPID PRESENTING PARTICLES FOR CELL TARGETING IN THERAPY AND DIAGNOSTICS” (UNIVERSITY OF SOUTH CAROLINA, priority 2022, published 2023)

Test system: BMDMs
Test: UNC2025 with PS:PLG particle treatment of LPS-inflamed primary macrophages
Type: cell-based, mice
Settings: LPS 1 ng/mL, PS:PLG 1:10 cell to particle ratio
Method: FIG. 10 depicts TNF-α secreted by BMDMs pre-treated with UNC2025 followed by a co-treatment with LPS (1 ng/mL) and PS:PLG (1:10 cell to particle ratio).
FIG. 11 depicts IL-6 secreted by BMDMs pre-treated with UNC2025 followed by a co-treatment with LPS (1 ng/mL) and PS:PLG (1:10 cell to particle ratio).
FIG. 12 depicts IL-10 secreted by BMDMs pre-treated with UNC2025 followed by a co-treatment with LPS (1 ng/mL) and PS:PLG (1:10 cell to particle ratio).
This effect is not limited to UNC2025 but applicable to a broad range of bioactive molecules including small molecules, nucleic acids, peptides, lipids, glycans, etcetera.

## CCCCNc1ncc2c(-c3ccc(CN4CCN(C)CC4)cc3)cn([C@H]3CC[C@H](O)CC3)c2n1 [UNC2025]
  anti-inflammatory response of PS:PLG particle treatment with co-delivery of small molecule (TNF-α, IL-6, IL-10): synergistically enhanced
